# Measurements as given in patent publication US7414078B2, “Oral general anesthetics and metabolitically resistant anticonvulsants” (University of Virginia Patent Foundation, priority 2001, dated 2008).
# Like-named read-outs stand apart in the source and are kept apart here. Marks after values point to notes of the source that are not given here.
# What was measured:
# [1] = test system: Isoflurane anesthesia (minimum alveolar concentration, MAC); assay: General anesthesia test: reduction of isoflurane MAC after i.p. compound; type: in vivo, rats; conditions: for MAC value of Isoflurane at 60 mg/kg of compound / Percent Reduction in Isoflurane: rats; for MAC value of Isoflurane at 60 mg/kg of compound: 60 mg/kg i.p. in peanut oil, 1.2% isoflurane generates 100% anesthesia; for Percent Reduction in Isoflurane: 60 mg/kg i.p., relative to 1.2% isoflurane; for anesthetic activity: rat, in vivo
# Procedure: The MAC value is the minimum alveolar concentration of anesthetic at 1 atm that produces immobility in 50% of the subjects.
# 200 mg of each compound are tested for general anesthesia activity Testing is performed on rats to determine the percent reduction in the use of isoflurane. Inhaled anesthetics still need to be utilized to rapidly adjust the level of anesthesia. Since no single anesthetic is capable of all four requirements for anesthesia, a combination is utilized. The rats were first anesthetized with isoflurane, intubated, ventilated and then a femoral line was inserted. After the rat had been stable for 15 minutes, the initial minimum alveolar concentration (MAC) value was determined. […] After 30 minutes the second MAC value was determined post administration. Finally, after one hour the third MAC value was determined. At each MAC determination, a sample of blood was taken to determine pH, pCO2, and pO2. The results of the compounds tested to date are compared to the lead compound 17.
# (§1) A classical comparison of log P and MAC reduction was investigated. A graph representing the effects of log P on the biological activity is presented in graphic form (See FIG. 1). The general anesthetic activity of compounds 20-23 and 36-43 were compared to lead compound 17 as represented in the graph (FIG. 1) and in Table 1. The partition coefficient, P, is a measure of the way the compound distributes itself between octanol and water. […] Therefore, meta-substituted derivatives 20 will be the focus of future synthesize. Bulky substituents on the alcohol were also found to have low activity.
# [2] = test system: blood pressure / hemodynamics; assay: Hemodynamic effects during isoflurane anesthesia; type: in vivo, rats
# Procedure: 200 mg of each compound are tested for general anesthesia activity Testing is performed on rats to determine the percent reduction in the use of isoflurane. Inhaled anesthetics still need to be utilized to rapidly adjust the level of anesthesia. Since no single anesthetic is capable of all four requirements for anesthesia, a combination is utilized. The rats were first anesthetized with isoflurane, intubated, ventilated and then a femoral line was inserted. After the rat had been stable for 15 minutes, the initial minimum alveolar concentration (MAC) value was determined. Then, 60 mg/kg of drug was sonicated in 3 mL of peanut oil and injected (i.p.). After 30 minutes the second MAC value was determined post administration. Finally, after one hour the third MAC value was determined. At each MAC determination, a sample of blood was taken to determine pH, pCO2, and pO2. The results of the compounds tested to date are compared to the lead compound 17.
# [3] = test system: seizures induced by maximal electroshock (MES); assay: Maximal electroshock (MES) test, mice i.p. (NIH); type: in vivo; conditions: for MES, animals protected/animals tested: mice i.p.; for MES, mice protected: phase I i.p. mice
# Procedure: (§2) 300 mg of each compound was synthesized and sent to the National institute of Health's Anticonvulsant Screening Project of the Antiepileptic Drug Discovery Program. NIH performs anticonvulsant testing (oral and intraperitoneal, i.p.) on both mice and rats in phase I trials. The grand mal model is conducted with a maximal electroshock (MES) test, where corneal electrode implants are primed with a drop of electrolyte solution and an electrical stimulus is delivered for 0.2 second. The model examines the compounds' ability to stop the spread of seizures. The petite mal model is conducted with a subcutaneous pentylenetetrazol seizure threshold (scMet) test. The animals are injected with a convulsant dose of pentylenetetrazol at the peak effect time of the compound. This model measures the compounds' threshold for seizures. A toxicity test (TOX) is performed where the animals walk on a spinning rod for varying lengths of time to check for the loss of righting reflex or other toxic effects.
# [4] = test system: pentylenetetrazol-induced seizures (scMet); assay: Subcutaneous pentylenetetrazol seizure threshold (scMet) test, mice i.p. (NIH); type: in vivo; conditions: for SCMET, animals protected/animals tested: mice i.p.
# Procedure: as §2
# [5] = test system: loss of righting reflex or other toxic effects on spinning rod; assay: Toxicity test (TOX), spinning rod, mice i.p. (NIH); type: in vivo; conditions: for TOX, animals affected/animals tested: mice i.p.
# Procedure: as §2
# [6] = test system: seizures induced by maximal electroshock (MES); assay: Maximal electroshock (MES) test, rat oral (NIH); type: in vivo, rats; conditions: 30 mg/kg; for MES, animals protected/animals tested: rat oral
# Procedure: as §2
# [7] = test system: loss of righting reflex or other toxic effects on spinning rod; assay: Toxicity test (TOX), spinning rod, rat oral (NIH); type: in vivo, rats; conditions: 30 mg/kg
# Procedure: as §2
# toxicity, lethal dose = assay: Toxicity / lethal dose noted with general anesthetic activity comparison; type: in vivo; conditions: for toxicity: same dosage = 300 mg/kg; for lethal dose: in vivo
# Source text: as §1
# rats = assay: Anticonvulsant testing of compound 17 in rats (oral ED50, toxicity, surgical anesthesia); type: in vivo
# Source text: In addition increased halogen size and saturation at the position 3 carbon also increase anesthetic activity. A hydrogen bond donor is also important at the position 2 carbon, but bulk is not well tolerated.
# seizures = conditions: cited from earlier work; for anticonvulsant activity: tested in the 1950's
# blood dyscrasias, rash = conditions: 1950's findings; cited from earlier work
# [8] = rats, 60 mg/kg i.p., isoflurane anesthesia
# [9] = 300 mg/kg, 0.5 hours, footnotes: loss of righting reflex (and one death for Cmp 20, 21)
# [10] = 300 mg/kg, 4.0 hours, footnote c: loss of righting reflex (Cmp 20, 21)
Compound,MAC value of Isoflurane at 60 mg/kg of compound [1] [%],Percent Reduction in Isoflurane [1] [%],"Hemodynamic Effects [2, 8]","MES, animals protected/animals tested ([3]; 30 mg/kg, 0.5 hours)","MES, animals protected/animals tested ([3]; 30 mg/kg, 4.0 hours)","MES, animals protected/animals tested ([3]; 100 mg/kg, 0.5 hours)","MES, animals protected/animals tested ([3]; 100 mg/kg, 4.0 hours)","SCMET, animals protected/animals tested ([4]; 30 mg/kg, 0.5 hours)","SCMET, animals protected/animals tested ([4]; 30 mg/kg, 4.0 hours)","SCMET, animals protected/animals tested ([4]; 100 mg/kg, 0.5 hours)","SCMET, animals protected/animals tested ([4]; 100 mg/kg, 4.0 hours)","TOX, animals affected/animals tested ([5]; 30 mg/kg, 0.5 hours)","TOX, animals affected/animals tested ([5]; 30 mg/kg, 4.0 hours)","TOX, animals affected/animals tested ([5]; 100 mg/kg, 0.5 hours)","TOX, animals affected/animals tested ([5]; 100 mg/kg, 4.0 hours)","TOX, animals affected/animals tested [5, 9]","TOX, animals affected/animals tested [5, 10]",anesthetic activity [1],"toxicity (toxicity, lethal dose)",further results
CN1C(=O)C(O)(C(F)(F)F)c2ccccc21 (stereo not drawn) [Compound 23],0.95,20.8,none,0/1,0/1,3/3,0/3,1/5,0/1,0/1,0/1,0/4,0/2,1/8,0/4,4/4^c,1/2,–,–,"MES, animals protected/animals tested ([3]; 300 mg/kg, 0.5 hours): 1/1; MES, animals protected/animals tested ([3]; 300 mg/kg, 4.0 hours): 1/1; SCMET, animals protected/animals tested ([4]; 300 mg/kg, 0.5 hours): 1/1; SCMET, animals protected/animals tested ([4]; 300 mg/kg, 4.0 hours): 1/1; MES, animals protected/animals tested ([6]; 0.25 hrs.): 2/4; MES, animals protected/animals tested ([6]; 0.5 hrs.): 1/4; MES, animals protected/animals tested ([6]; 1.0 hrs.): 2/4; MES, animals protected/animals tested ([6]; 2.0 hrs.): 2/4; MES, animals protected/animals tested ([6]; 4.0 hrs.): 2/4; TOX, animals affected/animals tested ([7]; 0.25 hrs.): 0/4; TOX, animals affected/animals tested ([7]; 0.5 hrs.): 0/4; TOX, animals affected/animals tested ([7]; 1.0 hrs.): 0/4; TOX, animals affected/animals tested ([7]; 2.0 hrs.): 0/4; TOX, animals affected/animals tested ([7]; 4.0 hrs.): 0/4"
"NC(=O)C(O)(c1ccc(F)cc1)C(F)(F)F (stereo not drawn) [Compound 39, 3,3,3-Trifluoro-2-hydroxy-2-(4-fluoro-phenyl)-propionamide]",–,–,–,–,–,–,–,–,–,–,–,–,–,–,–,–,–,very active,toxic at the same dosage,"animals with a 100% reduction in Isoflurane MAC ([1]; 300 mg/kg): 3 out of 4; MES, mice protected ([3]; 100 mg/kg, duration of 0.5 hours): 5 out of 5; MES, mice protected ([3]; 100 mg/kg, duration of 1 hour): 2 out of 3; activity as an anticonvulsant in scMET assay ([4]; species and dose not stated): demonstrated activity; Neurotoxicity, mice unable to grasp rod ([5]; mice, 100 mg/kg, duration of 0.5 hours): seven of eight; MES, rats protected ([6]; phase I oral rat, duration of 2 hours): 4 out of 4"
"NC(=O)C(O)(c1ccccc1)C(F)(F)F (stereo not drawn) [Compound 17, 3,3,3-Trifluoro-2-hydroxy-2-phenyl-propionamide]",0.65,46,–,–,–,–,–,–,–,–,–,–,–,–,–,–,–,–,–,"lowering of minimum alveolar concentration (MAC) value of isoflurane ([1]; isoflurane 1.2% in O2, dose not stated): sixty; Hemodynamic Effects ([2]; rat, in vivo): no hemodynamic effects; Hemodynamic Effects ([2]; rat, in vivo, ip, 60 mg/kg): none; ED50 (rats; Rattus norvegicus, rats, oral, read-out: anesthetic activity, oral ED50): 9 mg/kg; toxicity at dose (rats; rats, oral): 300 mg/kg; stage of anesthesia exhibited by animals (rats; third stage: general loss of spinal reflexes and muscle tone): surgical anesthesia"
NC(=O)C(O)(c1ccccc1)C(F)(F)Cl (stereo not drawn) [Compound 42],–,–,–,–,–,–,–,–,–,–,–,–,–,–,–,–,–,high activity,very toxic,"lethal dose (toxicity, lethal dose): 300 mg/kg"
NC(=O)C(O)(c1cccc(F)c1)C(F)(F)F (racemic) [Compound 20],0.70,42,lowers blood,0/1^a,0/1,3/3,3/3,2/5,0/1,1/1,1/1,0/4,0/2,6/8,0/4,4/4^b,1/1^c,high activity,very toxic,"MES, animals protected/animals tested ([3]; 300 mg/kg, 0.5 hours): 0/0; MES, animals protected/animals tested ([3]; 300 mg/kg, 4.0 hours): 1/1; lethal dose (toxicity, lethal dose): 300 mg/kg"
O=C1Nc2ccccc2C1(O)C(F)(F)F (stereo not drawn) [Compound 22],1.05,12.5,none,–,–,–,–,–,–,–,–,–,–,–,–,–,–,–,–,–
"CC(O)(C(N)=O)c1ccccc1 (racemic) [Themisone, α-hydroxy-α-methylbenzeneacetamide]",–,–,–,–,–,–,–,–,–,–,–,–,–,–,–,–,–,no anesthetic activity,–,"mice protected against seizures (seizures; racemic mixture, 250 mg/kg): 4 out of 4; anticonvulsant activity (seizures): very potent anticonvulsant; anticonvulsant activity (seizures; listed as atrolactamide (themisone)): anticonvulsant activity; toxicity (blood dyscrasias, rash): toxic (blood dyscrasias, rash)"
NC(=O)C(O)(c1ccc(Cl)cc1)C(F)(F)F (racemic) [Compound 21],0.65,46,none,0/1,0/1,0/3,1/3,0/1,0/1,4/4,1/1,0/4,0/2,6/8,3/4,4/4^b,1/1^c,very active,toxic at the same dosage,"SCMET, animals protected/animals tested ([4]; 300 mg/kg, 0.5 hours): 0/0; SCMET, animals protected/animals tested ([4]; 300 mg/kg, 4.0 hours): 1/1; MES, animals protected/animals tested ([6]; 0.25 hrs.): 1/4; MES, animals protected/animals tested ([6]; 0.5 hrs.): 1/4; MES, animals protected/animals tested ([6]; 1.0 hrs.): 1/4; MES, animals protected/animals tested ([6]; 2.0 hrs.): 1/4; MES, animals protected/animals tested ([6]; 4.0 hrs.): 1/4; TOX, animals affected/animals tested ([7]; 0.25 hrs.): 0/4; TOX, animals affected/animals tested ([7]; 0.5 hrs.): 0/4; TOX, animals affected/animals tested ([7]; 1.0 hrs.): 0/4; TOX, animals affected/animals tested ([7]; 2.0 hrs.): 0/4; TOX, animals affected/animals tested ([7]; 4.0 hrs.): 0/4"
